Literature values, collected in patent US7517900B2, “Pyrazole derivatives as cannabinoid receptor modulators” (Bristol-Myers Squibb Company, priority 2003, dated 2009).

Key:
[1] = chronic administration for two weeks
human subjects = conditions: 16 week trial period, Phase IIb

Compound	body weight [1]	body weight in human subjects (human subjects)
Cc1c(C(=O)NN2CCCCC2)nn(-c2ccc(Cl)cc2Cl)c1-c1ccc(I)cc1 [AM-251]	substantial body weight reduction	
Cc1c(C(=O)NN2CCCCC2)nn(-c2ccc(Cl)cc2Cl)c1-c1ccc(Cl)cc1 [SR-141716]		dose-dependently reduced body weight
